Reference: patent publication US8580852B2, “2-oxamide inhibitors of phospholipase A2 activity and cellular arachidonate release based on dipeptides and pseudopeptides” (The Regents of the University of California, priority 2009, dated 2013)
Read-outs that look alike come from different tables or passages of the source.

Legend:
RAW 264.7 macrophages = assay: Inhibition of Kdo2-Lipid A stimulated arachidonic acid release; type: cell-based; details: for Effect on AA release (in words): 25 μM inhibitor; for Effect on AA release (in words) / IC50: Kdo2-Lipid A; for Effect on AA release (in words) / inhibition at 25 µM: RAW 264.7 macrophages; for IC50 / inhibition at 25 µM: Mus musculus; for IC50: RAW264.7, RAW 264.7 cells, half maximal of the maximum inhibition observed; for inhibition at 25 µM: RAW264.7, 25 μM inhibitor preincubated, Kdo2-Lipid A stimulation, read-out: AA Release Inhibition (%)
From the text: Arachidonic acid (AA) is the ideal metabolic indicator of GIVA cPLA2 activity, since it is the product of GIVA cPLA2-mediated catalysis. In addition to some of the new 2-oxoamides based on dipeptides and pseudodipeptides that were synthesized in this work, a series of potent 2-oxoamide in vitro inhibitors of GIVA cPLA2, previously reported by us, were further tested in a cellular ex vivo system to investigate whether they reduced cellular AA production. For this purpose, RAW 264.7 macrophages were preincubated with 25 μM concentrations of the inhibitor prior to treatment of the cells with Kdo2-Lipid A. Subsequently, AA release was quantitated from the supernatants.
RAW 264.7 macrophages were maintained in a humidified atmosphere at 37° C. with 5% CO2, as described elsewhere.^36 The cells were cultured in DMEM media that was supplemented with 10% fetal bovine serum, 2 mM glutamine, 100 units/mL penicillin, 100 μg/ml streptomycin, and non-essential amino acids. The cells were plated at a confluency of 2×10^6 cells per well in 6 well tissue culture plates and allowed to adhere overnight. Inhibitors were added to the medium 30 min before Kdo2-Lipid A was added and the supernatants were collected at 1 hour following stimulation. Subsequently, AA was extracted from the supernatants and quantitated by HPLC-MS, as described elsewhere.^36, 37 AA release levels were normalized to pmol AA release per million cells though DNA quantitation using the Broad Range DNA Quant-Kit (Invitrogen). IC50 values were determined by estimating the concentration of inhibitor required for half maximal inhibition of the maximum inhibition observed with a given inhibitor.

GIVA cPLA2 = biological target: T1, GIVA cPLA2 (Homo sapiens, UniProt P47712); details: in vitro; inhibitors previously reported; also inhibit GVIA iPLA2 and GV sPLA2; cited from earlier work
T1 sequence (P47712 1-749): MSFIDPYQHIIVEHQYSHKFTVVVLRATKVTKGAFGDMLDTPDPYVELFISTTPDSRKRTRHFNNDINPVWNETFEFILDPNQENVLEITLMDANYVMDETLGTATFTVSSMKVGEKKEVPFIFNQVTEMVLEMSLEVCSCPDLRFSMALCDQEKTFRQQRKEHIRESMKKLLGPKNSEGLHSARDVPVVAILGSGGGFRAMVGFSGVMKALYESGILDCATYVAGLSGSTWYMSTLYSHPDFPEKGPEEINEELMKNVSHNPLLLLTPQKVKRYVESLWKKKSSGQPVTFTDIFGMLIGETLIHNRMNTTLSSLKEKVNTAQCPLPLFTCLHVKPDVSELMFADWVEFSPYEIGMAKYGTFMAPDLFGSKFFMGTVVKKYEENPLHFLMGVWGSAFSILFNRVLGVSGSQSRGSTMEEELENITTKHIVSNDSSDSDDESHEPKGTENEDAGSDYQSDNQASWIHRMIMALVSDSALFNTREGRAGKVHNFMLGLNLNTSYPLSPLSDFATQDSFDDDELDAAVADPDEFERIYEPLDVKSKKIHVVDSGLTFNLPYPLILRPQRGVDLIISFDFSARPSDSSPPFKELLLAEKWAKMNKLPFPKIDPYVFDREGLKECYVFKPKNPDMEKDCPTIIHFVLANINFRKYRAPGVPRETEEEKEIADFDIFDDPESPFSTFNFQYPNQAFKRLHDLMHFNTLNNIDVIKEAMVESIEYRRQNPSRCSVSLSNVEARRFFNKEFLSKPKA

[1] = read-out: IC50 for the inhibition of arachidonic acid release
[2] = read-out: IC50 for the inhibition of arachidonic acid release (text)

IC50 (RAW 264.7 macrophages; [1]) [µM]	IC50 (RAW 264.7 macrophages; [2]) [µM]	Compound	Effect on AA release (in words) (RAW 264.7 macrophages)	inhibition at 25 µM (RAW 264.7 macrophages) [%]	Inhibition of GIVA cPLA2 (in words) (GIVA cPLA2)
25	~25	CCC(=O)C(=O)NCCCC(=O)O [Compound 19]	significant reduction of AA release	52 ± 5	–
–	–	CCNC(=O)OC[C@@H](CCC(=O)OC)NC(=O)C(=O)CC [Compound 23]	–	–	inhibit GIVA cPLA2 to a high extent, though not selectively
–	–	CCOC(=O)CCCNC(=O)C(=O)CC [Compound 24]	–	–	inhibit GIVA cPLA2 to a high extent, though not selectively
25	~25	CCC(=O)C(=O)N[C@H](CCC(=O)O)CC(C)C [Compound 25]	significant reduction of AA release	62 ± 5	–
25	~25	CCC[C@@H](CCC(=O)O)NC(=O)C(=O)CC [Compound 26]	significant reduction of AA release	79 ± 0.5	–
–	–	CCC[C@@H](CCC(=O)OC)NC(=O)C(=O)CC [Compound 27]	–	–	inhibit GIVA cPLA2 to a high extent, though not selectively
–	–	CCC[C@@H](/C=C/C=C/C(=O)O)NC(=O)C(=O)CC [Compound 28]	–	6 ± 10	–
–	–	CCC[C@@H](/C=C/C(=O)OC)NC(=O)C(=O)CC [Compound 29]	–	–	inhibit GIVA cPLA2 to a high extent, though not selectively
25	~25	CCC[C@@H](/C=C/C(=O)O)NC(=O)C(=O)CC [Compound 30]	significant reduction of AA release	74 ± 8	–
–	–	CCC(=O)C(=O)N[C@@H](C)CCC(=O)OC(C)(C)C [Compound 31]	–	–	inhibit GIVA cPLA2 to a high extent, though not selectively
7	7	CCC[C@@H](CCCC(=O)O)NC(=O)C(=O)CC [Compound 35]	significant reduction of AA release	–	–
